# Test results: patent US5716934A, “Eck receptor ligands” (Amgen Inc., priority 1995, dated 1998)
# Columns and labels:
# eck receptor = assay: Chemical crosslinking of 125I-EBP to CHO 19.32 cells; format: binding, human; conditions: untransfected cells (CHOd-)
# Method: (§1) CHO-cell derived EBP was radiolabelled with ^125 I as described below for use in crosslinking and binding studies. Five or 10 μg of EBP in 0.1M sodium phosphate (NAPO4, pH 8.0) was added to 5 mCi of dried ^125 I-Bolton-Hunter reagent (NEN, Boston, Mass.) in a final volume of 50 μl or 100 μl, and the tube was incubated at 4° C. for 1 h. The reaction was terminated by addition of 0.3 ml of 0.2M glycine in 0.1M NaPO4, followed by incubation at 4° C. for 5 min. Labeled protein was separated from unincorporated reagent by gel filtration chromatography on a 10 ml PD10 column containing Sephadex G-25M (Pharmacia) equilibrated with 0.1M NaPO4 --0.25% gelatin. Specific activity of the ^125 I-EBP ranged from 4 to 19 cpm/pg.
# (§2) Crosslinking of EBP to either LIM 2405 (a cell line naturally expressing the eck receptor) or CHO 19.32 (Chinese hamster ovary cells transfected with a clone of the full length eck receptor) was carried out as follows. CHO cells were grown in suspension to a density of approximately 5×10^5 cells/ml in media. LIM2405 cells were grown in RPMI 1640 media containing 5% FCS, 1 μg/ml insulin, 1 μg/ml hydrocortisone, 10 μM thioglycerol and 2 mM L-glutamine to approximately 90% confluency in T-175 flasks and removed by scraping for use in the crosslinking studies. Cells were spun down and resuspended in PBS to give a single cell suspension. For each crosslinking reaction, 2×10^6 cells were mixed with approximately 20 ng of ^125 I-EBP in a total volume of 1 ml. This mixture was incubated at 4° C. for 1 h to allow binding of EBP to cell surface receptors before the addition of 20 μl of 10 mM disuccinimidyl suberate (DSS) as a crosslinking agent. Cells were then washed three times in binding buffer, collected by centrifugation, and the amount of radioactivity incorporated into the cell pellets was counted to assess the degree of crosslinking. The cells were then lysed by treatment with 100 ul PBS, 1 mM EDTA, 0.5% NP-40, 1 mM phenylmethylsulfonyl fluoride (PMSF, Sigma, St. Louis, Mo.) for 10 min at 4° C. […]
# [1] = system: eck receptor on CHO 19.32 cells; assay: as above; format: binding, human
# Method: as §1, §2
# eck receptor (p130^eck) = assay: p130eck autophosphorylation in LIM 2405 cells; format: cell-based, human; conditions: for eck receptor phosphorylation: intact LIM 2405 cells, 10-15 min at 37° C.
# Method: The LIM 2405 colorectal carcinoma cell line (Whitehead et al. Immunol. and Cell Biol. 70, 227 (1992)) was maintained in RPMI 1640 containing 5% FBS, 1 μg/ml insulin, 10 μg/ml hydrocortisone and 10 μM α-thioglycerol, and subpassaged by trypsination and dilution (1:5) into fresh media. Prior to assay 2.5×10^5 LIM 2405 cells were seeded into 6-well dishes (Falcon #3046) and incubated for 24 hr at 37° C. The media was discarded and replaced with serum-free RPMI 1640 containing 0.03% BSA, 1 μg/ml insulin, 10 μg/ml hydrocortisone and 10 μM α-thioglycerol, then incubated for 12-18 hr. In some experiments the cell cultures were labelled with ^32 P-orthophosphate (2 mCi/ml) in phosphate-free RPMI 1640 (Flow) for 2-3 hr prior to treatment. Growth factor stock solutions were prediluted at varying concentrations into 2.0 ml of serum-free media, then warmed to 37° C. Cell cultures were removed from the incubator, and the supernatant media discarded. Treatments were promptly added and the cell cultures incubated at 37° C. for 10-15 min. The cultures were then removed from the incubator, placed on ice, and the culture supernatant aspirated.
# The treated cell cultures were chilled to 0° C. then washed once with ice-cold PBS (GIBCO). The residual PBS was aspirated and the cells were lysed by the addition of 1.0 ml of ice-cold RIPA buffer (10 mM sodium phosphate, pH 7.4, 150 mM sodium chloride, 0.1% sodium dodecyl sulfate, 1% NP-40, 1% deoxycholate, 1% Trasylol, 2 mM EDTA, 50 mM sodium fluoride and 100 mM sodium orthovanadate). After a 10 min incubation the lysates were transferred to 1.5 ml tubes and clarified by centrifugation for 30 min at 10,000×g. The clarified lysate supernatants were transferred to new tubes and immunoprecipitated with 1.0 μg/ml of affinity purified rabbit anti-Eck C-terminal domain antibody for 2 hr at 0° C. Immune complexes were adsorbed to Protein-G Sepharose beads (Pharmacia) at 4° C. for 30 min, washed twice with ice-cold RIPA buffer, once with 0.1M Tris-HCl, pH 8.0, containing 0.5M LiCl, and once with RIPA. The resulting immunoprecipitates were solubilized with SDS-PAGE sample buffer and stored for further analysis.
# The anti-eck immunoprecipitates from treated and untreated LIM 2405 cell lysates were resolved on 7.5% polyacrylamide gels as previously described (Boyle et al. Meth. Enzymol. 201, 110 (1991)). […] Immune complexes were detected by chemiluminescent exposure (ECL, Amersham) to Kodak X-OMAT X-ray film at room temperature for 0.5-5 min.
# Eck receptor immunoprecipitates from ^32 P-labelled LIM 2405 cells were resolved by SDS-PAGE, and the gel dried directly without fixation. After exposure to X-ray film the labelled eck receptor band was isolated and phosphoamino acid content determined as described (Boyle et al. Meth. Enzymol. 201, 110 (1991))
substance,measurement,setting,value
CHO-EBP: recombinant EBP purified from supernatants of CHO cells transfected with the EBP gene; mainly EBP^1-150 and EBP^1-159,crosslinking to untransfected CHO cells,eck receptor,but not to the untransfected cells
same,competition for binding and crosslinking of 125I-rEBP,[1]; 50-fold molar excess,able to compete
same,crosslinking to CHO 19.32 cells,"[1]; CHO cells transfected with eck, DSS crosslinker",could be crosslinked
same,total cellular eck protein levels,eck receptor (p130^eck); LIM 2405 cells after exposure to soluble EBP,modest dose-dependent decrease
same,eck receptor phosphorylation,eck receptor (p130^eck); listed as CHO cell-derived rEBP,stimulated eck receptor phosphorylation
same,eck receptor phosphorylation,eck receptor (p130^eck); listed as CHO-derived rEBP,active in inducing phosphorylation
